Consider 16 compounds from US8318769B2, “Substituted sulfonamide compounds” (Gruenethal GmbH, priority 2008, dated 2012).

In the first experiment the target is T1, bradykinin 1 receptor (B1R) of the rat (Rattus norvegicus, UniProt P97583).
T1 construct: expressed in transfected cells
T1 sequence (P97583 1-337): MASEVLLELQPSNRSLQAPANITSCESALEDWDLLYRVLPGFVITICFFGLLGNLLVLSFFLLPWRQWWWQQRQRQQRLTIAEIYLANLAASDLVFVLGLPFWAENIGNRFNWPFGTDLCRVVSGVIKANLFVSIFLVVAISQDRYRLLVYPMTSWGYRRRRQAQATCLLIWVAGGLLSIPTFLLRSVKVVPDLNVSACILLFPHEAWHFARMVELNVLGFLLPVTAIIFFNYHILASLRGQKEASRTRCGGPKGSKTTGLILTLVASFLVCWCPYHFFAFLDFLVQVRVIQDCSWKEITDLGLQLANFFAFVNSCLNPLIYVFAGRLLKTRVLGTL
Nature of the experiment: FLIPR Ca2+ assay, B1R antagonism, rat. It counts as cell-based. To be noted: 10 μM test substance; CHO K1 cells with rat B1R gene (rB1R cells); Des-Arg9-bradykinin at EC80; % inhibition compared with the maximum achievable inhibition. How it is done:
The agonistic or antagonistic action of substances can be quantified on the bradykinin 1 receptor (B1R) of the human and rat species with ectopically expressing cell lines (CHO K1 cells) and with the aid of a Ca^2+-sensitive dyestuff (Fluo-4) in a fluorescent imaging plate reader (FLIPR). The figure in % activation is based on the Ca^2+ signal after addition of Lys-Des-Arg^9-bradykinin (0.5 nM) or Des-Arg^9-bradykinin (100 nM). Antagonists lead to a suppression of the Ca^2+ inflow after addition of the agonist. % inhibition compared with the maximum achievable inhibition is stated.
The agonistic or antagonistic action of substances can be determined on the bradykinin 1 receptor (B1R) of the human and rat species with the following assay. In accordance with this assay, the Ca^2+ inflow through the channel is quantified with the aid of a Ca^2+-sensitive dyestuff (type Fluo-4, Molecular Probes Europe BV, Leiden, Holland) in a fluorescent imaging plate reader (FLIPR, Molecular Devices, Sunnyvale, USA).
Chinese hamster ovary cells (CHO K1 cells) transfected stably with the human B1R gene (hB1R cells) or the B1R gene of the rat (rB1R cells) are used. For functional studies, these cells are plated out on black 96-well plates with a clear base (BD Biosciences, Heidelberg, Germany or Greiner, Frickenhausen, Germany) in a density of 20,000-35,000 cells/well. The cells are left overnight at 37° C. and 5% CO2 in culture medium (hB1R cells: Nutrient Mixture Ham's F12, Gibco Invitrogen GmbH, Karlsruhe, Germany or DMEM, Sigma-Aldrich, Taufkirchen, Germany; rB1R cells: D-MEM/F12, Gibco Invitrogen GmbH, Karlsruhe, Germany) with 10 vol. % FBS (foetal bovine serum, Gibco Invitrogen GmbH, Karlsruhe, Germany or PAN Biotech GmbH, Aidenbach, Germany).
On the following day, the cells are loaded for 60 min at 37° C. with 2.13 μM Fluo-4 (Molecular Probes Europe BV, Leiden, Holland) in HBSS buffer (Hank's buffered saline solution, Gibco Invitrogen GmbH, Karlsruhe, Germany) with 2.5 mM probenecid (Sigma-Aldrich, Taufkirchen, Germany) and 10 mM HEPES (Sigma-Aldrich, Taufkirchen, Germany). The plates are then washed 2× with HBSS buffer, and HBSS buffer which additionally contains 0.1% BSA (bovine serum albumin; Sigma-Aldrich, Taufkirchen, Germany), 5.6 mM glucose and 0.05% gelatine (Merck KGaA, Darmstadt, Germany) is added. After a further incubation of 20 minutes at room temperature, the plates are inserted into the FLIPR for the Ca^2+ measurement.
Alternatively, the plates are washed with buffer A (15 mM HEPES, 80 mM NaCl, 5 mM KCl, 1.2 mM CaCl2, 0.7 mM MgSO4, 2 g/l glucose, 2.5 mM probenecid), buffer A is added and the plates are loaded with 2.5 μM Fluo-4 and 0.025% Pluronic F127 (Sigma-Aldrich, Taufkirchen, Germany). Thereafter, the cells are washed 2× with buffer A and incubated for 30 minutes with buffer A, which additionally contains 0.05% BSA and 0.05% gelatine, at room temperature and thereafter inserted into the FLIPR for the Ca^2+ measurement.
The Ca^2+-dependent fluorescence is measured here before and after addition of substances (λex=488 nm, λem=540 nm). Quantification is by measurement of the highest fluorescence intensity (FC, fluorescence counts) over time.
The FLIPR protocol consists of 2 additions of substance. Test substances (10 μM) are first pipetted on to the cells and the Ca^2+ inflow is compared with the control (hB1R: Lys-Des-Arg^9-bradykinin >=50 nM; rB1R: Des-Arg^9-bradykinin 10 μM). This gives the figure in % activation based on the Ca^2+ signal after addition of Lys-Des-Arg^9-bradykinin (>=50 nM) or Des-Arg^9-bradykinin (10 μM).
After incubation for 10-20 minutes, Lys-Des-Arg^9-bradykinin (hB1R) or Des-Arg^9-bradykinin (rB1R) in the concentration of the EC80 is applied and the inflow of Ca^2+ is likewise determined. Antagonists lead to a suppression of the Ca^2+ inflow. % inhibition compared with the maximum achievable inhibition is calculated. […]
In the case of “1-[4-pyridin-3-yl-4-(2-pyrrolidin-1-yl-ethoxy)-piperidin-1-yl]-2-[[4-[[2-(trifluoromethyl)-phenyl]sulfonyl]-3,4-dihydro-2H-[1,4]benzoxazin-3-yl]-methoxy]-ethanone [Example 110]”, the “B1R antagonism, rat [10 μM] % inhibition” value was 75%.

Still in this experiment, the particulars now being: CHO-K1, 10 μM test substance; CHO K1 cells with rat B1R gene (rB1R cells); Des-Arg9-bradykinin at EC80; % inhibition compared with the maximum achievable inhibition; read-out: B1R antagonism, rat [10 μM] % inhibition.
For the compound `COc1cc(C)c(S(=O)(=O)N2CCCCC2COCC(=O)N2CCC(OCCN3CCCC3)(c3ccc(F)cc3)CC2)c(C)c1` (stereo not shown) [Example 64, 1-[4-(4-fluorophenyl)-4-(2-pyrrolidin-1-yl-ethoxy)-piperidin-1-yl]-2-[[1-[(4-methoxy-2,6-dimethyl-phenyl)sulfonyl]-piperidin-2-yl]-methoxy]-ethanone], the inhibition at 10 µM is 98%. For the compound `COc1cc(C)c(S(=O)(=O)N2CCCCC2COCC(=O)N2CCC(OCCN3CCCC3)(c3ccc(C(F)(F)F)cc3)CC2)c(C)c1` (stereo not shown) [Example 65, 2-[[1-[(4-methoxy-2,6-dimethyl-phenyl)sulfonyl]-piperidin-2-yl]-methoxy]-1-[4-(2-pyrrolidin-1-yl-ethoxy)-4-[4-(trifluoromethyl)-phenyl]-piperidin-1-yl]-ethanone], the inhibition at 10 µM was determined as 96%.

For the compound `COc1cc(C)c(S(=O)(=O)N(CCOCC(=O)N2CCC(OCCN3CCCC3)(c3ccc(F)cc3)CC2)C2CC2)c(C)c1` [Example 66, N-cyclopropyl-N-[2-[2-[4-(4-fluorophenyl)-4-(2-pyrrolidin-1-yl-ethoxy)-piperidin-1-yl]-2-oxo-ethoxy]-ethyl]-4-methoxy-2,6-dimethyl-benzenesulfonic acid amide], the inhibition at 10 µM was found to be 97%.

In the case of `COc1cc(C)c(S(=O)(=O)N(CCOCC(=O)N2CCC(OCCN3CCCC3)(c3ccc(C(F)(F)F)cc3)CC2)C2CC2)c(C)c1` [Example 67, N-cyclopropyl-4-methoxy-2,6-dimethyl-N-[2-[2-oxo-2-[4-(2-pyrrolidin-1-yl-ethoxy)-4-[4-(trifluoromethyl)-phenyl]-piperidin-1-yl]-ethoxy]-ethyl]-benzenesulfonic acid amide], the inhibition at 10 µM was found to be 98%. Same read-out and setting: under `Cc1cccc(Cl)c1S(=O)(=O)N1CCCCC1COCC(=O)N1CCC(OCCN2CCCC2)(c2ccc(F)cc2)CC1` (stereo not shown) [Example 68, 2-[[1-[(2-chloro-6-methyl-phenyl)sulfonyl]-piperidin-2-yl]-methoxy]-1-[4-(4-fluorophenyl)-4-(2-pyrrolidin-1-yl-ethoxy)-piperidin-1-yl]-ethanone] stands 93%.

Take `Cc1cccc(Cl)c1S(=O)(=O)N1CCCCC1COCC(=O)N1CCC(OCCN2CCCC2)(c2ccc(C(F)(F)F)cc2)CC1` (stereo not shown) [Example 69, 2-[[1-[(2-chloro-6-methyl-phenyl)sulfonyl]-piperidin-2-yl]-methoxy]-1-[4-(2-pyrrolidin-1-yl-ethoxy)-4-[4-(trifluoromethyl)-phenyl]-piperidin-1-yl]-ethanone]: the inhibition at 10 µM is 97%. Take `Cc1cccc(Cl)c1S(=O)(=O)N(CCOCC(=O)N1CCC(OCCN2CCCC2)(c2ccc(F)cc2)CC1)C1CC1` [Example 70, 2-chloro-N-cyclopropyl-N-[2-[2-[4-(4-fluorophenyl)-4-(2-pyrrolidin-1-yl-ethoxy)-piperidin-1-yl]-2-oxo-ethoxy]-ethyl]-6-methyl-benzenesulfonic acid amide]: the inhibition at 10 µM amounted to 98%.

For `Cc1cccc(Cl)c1S(=O)(=O)N(CCOCC(=O)N1CCC(OCCN2CCCC2)(c2ccc(C(F)(F)F)cc2)CC1)C1CC1` [Example 71, 2-chloro-N-cyclopropyl-6-methyl-N-[2-[2-oxo-2-[4-(2-pyrrolidin-1-yl-ethoxy)-4-[4-(trifluoromethyl)-phenyl]-piperidin-1-yl]-ethoxy]-ethyl]-benzenesulfonic acid amide], the inhibition at 10 µM is 95%. For the compound `O=C(CC1CCCCN1S(=O)(=O)c1cccc(C(F)(F)F)c1)N1CCC(OCCN2CCCC2)(c2ccc(F)cc2)CC1` (stereo not shown) [Example 72, 1-[4-(4-fluorophenyl)-4-(2-pyrrolidin-1-yl-ethoxy)-piperidin-1-yl]-2-[1-[[3-(trifluoromethyl)phenyl]sulfonyl]-piperidin-2-yl]-ethanone], the inhibition at 10 µM turned out to be 62%.

As for `O=C(CC1CCCCN1S(=O)(=O)c1cccc(C(F)(F)F)c1)N1CCC(OCCN2CCCC2)(c2ccc(C(F)(F)F)cc2)CC1` (stereo not shown) [Example 73, 1-[4-(2-pyrrolidin-1-yl-ethoxy)-4-[4-(trifluoromethyl)-phenyl]-piperidin-1-yl]-2-[1-[[3-(trifluoromethyl)phenyl]sulfonyl]-piperidin-2-yl]-ethanone], the inhibition at 10 µM came to 100%. With `Cc1cc(S(=O)(=O)N2CCCCC2CCC(=O)N2CCC(OCCN3CCCC3)(c3ccc(F)cc3)CC2)c(C)cc1Cl` (stereo not shown) [Example 74, 3-[1-[(4-chloro-2,5-dimethyl-phenyl)sulfonyl]-piperidin-2-yl]-1-[4-(4-fluorophenyl)-4-(2-pyrrolidin-1-yl-ethoxy)-piperidin-1-yl]-propan-1-one], the inhibition at 10 µM stood at 92%.

Turning to `Cc1cc(S(=O)(=O)N2CCCCC2CCC(=O)N2CCC(OCCN3CCCC3)(c3ccc(C(F)(F)F)cc3)CC2)c(C)cc1Cl` (stereo not shown) [Example 75, 3-[1-[(4-chloro-2,5-dimethyl-phenyl)sulfonyl]-piperidin-2-yl]-1-[4-(2-pyrrolidin-1-yl-ethoxy)-4-[4-(trifluoromethyl)-phenyl]-piperidin-1-yl]-propan-1-one], the inhibition at 10 µM turned out to be 96%. Same read-out and setting: the figure for `O=C(CC(NS(=O)(=O)c1ccc2ccccc2c1)c1ccccc1)N1CCC(OCCN2CCCC2)(c2ccc(F)cc2)CC1` (stereo not shown) [Example 76, N-[3-[4-(4-fluorophenyl)-4-(2-pyrrolidin-1-yl-ethoxy)-piperidin-1-yl]-3-oxo-1-phenyl-propyl]-naphthalene-2-sulfonic acid amide] is 90%; for `O=C(CC(NS(=O)(=O)c1ccc2ccccc2c1)c1ccccc1)N1CCC(OCCN2CCCC2)(c2ccc(C(F)(F)F)cc2)CC1` (stereo not shown) [Example 77, N-[3-oxo-1-phenyl-3-[4-(2-pyrrolidin-1-yl-ethoxy)-4-[4-(trifluoromethyl)-phenyl]-piperidin-1-yl]-propyl]-naphthalene-2-sulfonic acid amide] it is 94%. On the same count and under the same terms, the figure for `COc1cc(C)c(S(=O)(=O)N2CCCCC2CCCC(=O)N2CCC(OCCN3CCCC3)(c3ccc(F)cc3)CC2)c(C)c1` (stereo not shown) [Example 78, 1-[4-(4-fluorophenyl)-4-(2-pyrrolidin-1-yl-ethoxy)-piperidin-1-yl]-4-[1-[(4-methoxy-2,6-dimethyl-phenyl)sulfonyl]-piperidin-2-yl]-butan-1-one] is 95%.

Broadly, the inhibition is the percentage by which the read-out fell short of the control.
